Laboratory results reported in patent publication US20240208972A1, “LRRK2 INHIBITORS AND USES THEREOF” (NEURON23, INC., priority 2022, published 2024).

What was measured:
[1] = molecular target: T1, wt human LRRK2, catalytic site (Homo sapiens, UniProt Q5S007); assay: TR-FRET LanthaScreen Tb Kinase Activity Assay, LRRK2 kinase inhibition; type: biochemical; conditions: 2 nM wt human LRRK2, 400 nM peptide, 38 μM ATP
T1 construct: wt human LRRK2, catalytic site, catalytic site (ThermoFisher/USA); purchased ThermoFisher
T1 sequence (Q5S007 1879-2138 limits assumed): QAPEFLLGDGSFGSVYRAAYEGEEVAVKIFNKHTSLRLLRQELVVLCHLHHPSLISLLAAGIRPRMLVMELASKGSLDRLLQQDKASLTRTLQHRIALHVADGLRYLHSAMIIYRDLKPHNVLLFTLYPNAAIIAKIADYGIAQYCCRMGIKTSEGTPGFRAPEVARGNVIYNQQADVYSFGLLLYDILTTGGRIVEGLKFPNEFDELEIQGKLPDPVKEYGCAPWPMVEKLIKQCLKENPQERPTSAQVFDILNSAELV
In short: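 TR-FRET LanthaScreen format: 2 nM wt human LRRK2 catalytic domain with 400 nM fluorescein-ERM (LRRKtide) and 38 μM ATP in Kinase Buffer A, after 15 min compound preincubation. Reaction 120 min at RT, then EDTA plus Tb-anti-pLRRKtide antibody for 60 min; emission ratios analysed per kit protocol.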

Caco-2 cells = assay: Caco-2 bidirectional permeability; type: in vitro ADME; conditions: for Caco-2 A2B (10^−6 cm/s): A to B; for Caco-2 A2B (10^−6 cm/s) / Caco-2 B2A (10^−6 cm/s): HBSS pH 7.4, 2 hours; for Caco-2 B2A (10^−6 cm/s): B to A; for Caco-2 ER: Efflux Ratio=Papp (BA)/Papp (AB)
In short: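 Caco-2 monolayers grown 21–28 days on PET inserts were run in duplicate in HBSS with 10 mM HEPES, pH 7.4. Compound was tested in both directions at […] for 2 h at 37 °C and quantified by LC-MS/MS. Papp, % recovery and efflux ratio (B-A/A-B) were calculated, with lucifer yellow checking monolayer integrity.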

[2] = Brain penetration (Kp,uu) in CD-1 mice, with plasma and brain tissue binding by equilibrium dialysis; type: in vivo; conditions: mouse, brain and plasma (unbound), male CD-1 mice, single IV bolus 1 mg/kg
Method: The compounds disclosed herein were tested on CD-1 mice for brain penetration (Kp, uu) according to the following procedures.
Nine male CD-1 mice were administered TEST COMPOUND by single intravenous bolus administration at 1 mg/kg. The vehicle used for IV study was 5% DMSO, 5% solutol, 20% PEG300 and 70% water. The detailed dosing and sampling regimens are described in the following tables.
1.0 mg of test compound was accurately weighed into a glass vial, and slowly added with 104 μL of DMSO and vortexed for 1 min. Then 104 μL of solutol was added and vortexed for 1 min. Then 415 μL of PEG300 was added and vortexed for 1 min. Then 1000 μL of water was added and vortexed for 1 min. Finally, 451 μL of water was added and vortexed for 1 min to get a clear solution.
The body weights were in the range from 28.81 to 31.25 g for males on the first dosing day. All animals received a single intravenous bolus administration of TEST COMPOUND from the tail vein.
Each blood collection (about 0.06 mL per time point) was performed from saphenous vein of each animal into pre-chilled commercial K2-EDTA tubes as anti-coagulant and placed on wet ice until centrifugation.
Plasma samples were then prepared by centrifuging the blood samples at approximately 4° C., 3200×g for 10 minutes. All plasma samples were then quickly frozen over dry ice and kept at −60° C. or lower until LC-MS/MS analysis.
Brain tissue was homogenized using homogenizing buffer (15 mM PBS (pH7.4): MeOH=2:1) at the ratio of 1:9 (1 g tissue with 9 mL buffer, the dilution ratio is 10). The tissue homogenate was kept at −60° C. or lower until LC-MS/MS analysis.
The concentrations of TEST COMPOUND in plasma and brain were determined by using an LC-MS/MS method.
The plasma and brain concentration of TEST COMPOUND in study animals was subjected to a non-compartmental pharmacokinetic analysis by using the Phoenix WinNonlin software program (version 6.3 or above, Pharsight). The linear/log trapezoidal rule was applied in obtaining the PK parameters.
Individual plasma and brain concentration values that were below the lower limit of quantitation (LLOQ) were excluded from the PK parameter calculation. The nominal dose levels and nominal sampling times were used in the calculation of all pharmacokinetic parameters.
Mouse Kp, uu=(% free in mouse brain*concentration in mouse brain)/(% free in mouse plasma*concentration in mouse plasma)
The dialysis apparatus was assembled according to the manufacturer's instruction. Each Cell was filled with 120 μL of spiked plasma sample and dialyzed against equal volume of dialysis buffer (PBS). The assay was performed in duplicate. The dialysis plates were sealed and incubated in an incubator at 37° C. with 5% CO2 and rotated at 100 rpm for 6 hours. At the end of incubation, the seals were removed and 50 μL of samples from both buffer and plasma chambers were transferred to a 96-well plate.
All calculations were carried out using Microsoft Excel. The concentrations of test compound and control compound in the buffer and plasma chambers were determined from peak area ratios (PAR) of analyte to internal standard. Protein binding (% unbound and % bound) and recovery (% recovery) of test and control compounds was calculated as follows:
• 1. Thawing of the frozen brain (stored at −80° C.) • Frozen brain tissue was thawed at room temperature in a bath. Only brain tissue was used that was thawed no more than once. • 2. Preparation of brain tissue homogenate • Brain tissue homogenate was prepared by diluting one quantity (g) of the whole brain tissue with three volumes (mL) of buffer (PBS, pH 7.4) and homogenizing the mixture using a tissue homogenizer. Brain tissue homogenate was frozen at −80° C. for later use/comparison. • 3. Preparation of working solutions • The working solutions of test compound and the control compound propranolol were prepared in dimethyl sulfoxide (DMSO) at the concentration of 200 μM. […]

[3] = Human liver microsomal clearance (hLM Cl); type: in vitro ADME; conditions: cells marked *

Row | Structure (SMILES) | IC50 [1] | Caco-2 A2B (10^−6 cm/s) (Caco-2 cells) | Caco-2 B2A (10^−6 cm/s) (Caco-2 cells) | Caco-2 ER (Caco-2 cells) | Kp uu [2] | hLM Cl (mL/min/kg) [3]
1 | [2H]C([2H])([2H])c1n[nH]c2c1N=C(c1c(F)cccc1F)Nc1ccc(N3CCO[C@H](C)C3)cc1-2 [Example 11, (2R)-4-[5-(2,6-difluorophenyl)-3-(trideuteriomethyl)-1,6-dihydropyrazolo[4,3-d][1,3]benzodiazepin-9-yl]-2-methyl-morpholine] | 2 to 100 nM | H (H (High permeability)”: A2B (B2A)>5) | H (H (High permeability)”: A2B (B2A)>5) | N (N (Non-substrate)”: ER<2.5) | 0.2 to 0.4 | L* (L (Low C1)”: Hep Cl<6.3 mL/min/kg)
2 | Cc1n[nH]c2c1N=C(c1c(F)cccc1F)Nc1c-2cc(N2CCC[C@@]3(CCOC3)C2)nc1C (single isomer, unassigned) [Example 49] | < 2 nM | H (H (High permeability)”: A2B (B2A)>5) | H (H (High permeability)”: A2B (B2A)>5) | N (N (Non-substrate)”: ER<2.5) | 0.2 to 0.4 | I* (I (Intermediate C1)”: 6.3 mL/min/kg≤Hep Cl≤14.7 mL/min/kg)
3 | Cc1n[nH]c2c1N=C(c1c(F)cccc1F)Nc1c-2cc(N2CC3CC(C2)O3)nc1C [Example 41, 3-(5-(2,6-difluorophenyl)-3,7-dimethyl-1,6-dihydropyrazolo[4,3-d]pyrido[4,3-f][1,3]diazepin-9-yl)-6-oxa-3-azabicyclo[3.1.1]heptane] | < 2 nM | H (H (High permeability)”: A2B (B2A)>5) | H (H (High permeability)”: A2B (B2A)>5) | N (N (Non-substrate)”: ER<2.5) | – | I* (I (Intermediate C1)”: 6.3 mL/min/kg≤Hep Cl≤14.7 mL/min/kg)
4 | Cc1n[nH]c2c1N=C(c1c(F)cccc1F)Nc1c-2cc(N2CCN(C)[C@H](C(F)(F)F)C2)nc1C (single isomer, unassigned) [Example 36] | < 2 nM | H (H (High permeability)”: A2B (B2A)>5) | H (H (High permeability)”: A2B (B2A)>5) | N (N (Non-substrate)”: ER<2.5) | – | I* (I (Intermediate C1)”: 6.3 mL/min/kg≤Hep Cl≤14.7 mL/min/kg)

Now from value to compound, other results behind:

Row | IC50 [1] | Caco-2 A2B (10^−6 cm/s) (Caco-2 cells) | Caco-2 B2A (10^−6 cm/s) (Caco-2 cells) | Caco-2 ER (Caco-2 cells) | Kp uu [2] | Structure (SMILES) | hLM Cl (mL/min/kg) [3]
5 | < 2 nM | H (H (High permeability)”: A2B (B2A)>5) | H (H (High permeability)”: A2B (B2A)>5) | N (N (Non-substrate)”: ER<2.5) | 0.2 to 0.4 | Cc1n[nH]c2c1N=C(c1c(F)cccc1F)Nc1ccc(N3CCN(C)C(C(F)(F)F)C3)cc1-2 (stereo not drawn) [Example 6, 5-(2,6-difluorophenyl)-3-methyl-9-[4-methyl-3-(trifluoromethyl)piperazin-1-yl]-1,6-dihydropyrazolo[4,3-d][1,3]benzodiazepine] | L* (L (Low C1)”: Hep Cl<6.3 mL/min/kg)
6 | < 2 nM | H (H (High permeability)”: A2B (B2A)>5) | H (H (High permeability)”: A2B (B2A)>5) | N (N (Non-substrate)”: ER<2.5) | 0.2 to 0.4 | Cc1n[nH]c2c1N=C(c1c(F)cccc1F)Nc1c-2cc(N2CCN(C)[C@@H](C(F)(F)F)C2)nc1C (single isomer, unassigned) [Example 37] | I* (I (Intermediate C1)”: 6.3 mL/min/kg≤Hep Cl≤14.7 mL/min/kg)
7 | < 2 nM | H (H (High permeability)”: A2B (B2A)>5) | H (H (High permeability)”: A2B (B2A)>5) | N (N (Non-substrate)”: ER<2.5) | 0.2 to 0.4 | Cc1n[nH]c2c1N=C(c1c(F)cccc1F)Nc1c-2cc(N2CCN(CCF)[C@@H](C)C2)nc1C [Example 21, (S)-5-(2,6-difluorophenyl)-9-(4-(2-fluoroethyl)-3-methylpiperazin-1-yl)-3,7-dimethyl-1,6-dihydropyrazolo[4,3-d]pyrido[4,3-f][1,3]diazepine] | L* (L (Low C1)”: Hep Cl<6.3 mL/min/kg)
8 | < 2 nM | H (H (High permeability)”: A2B (B2A)>5) | H (H (High permeability)”: A2B (B2A)>5) | N (N (Non-substrate)”: ER<2.5) | – | Cc1n[nH]c2c1N=C(c1c(F)cccc1F)Nc1c-2cc(C2CCOCC2)nc1C [Example 38, 8-(2,6-difluorophenyl)-5,11-dimethyl-13-tetrahydropyran-4-yl-3,4,7,9,12-pentazatricyclo[8.4.0.02,6]tetradeca-1(10),2(6),4,7,11,13-hexaene] | I* (I (Intermediate C1)”: 6.3 mL/min/kg≤Hep Cl≤14.7 mL/min/kg)
